Values after ≈ are worked out from the molar mass of the structure shown.
What was measured:
[1] = system: Pseudomonas aeruginosa AJ 2116; assay: Minimum Inhibitory Concentration (MIC) against Pseudomonas aeruginosa AJ 2116 in a culture; format: cell-based; settings: AJ2116, minimum concentration required to inhibit growth of test organism in a culture
Experimental: Antibacterial activity was determined with regards to the compounds produced in the examples described above. Some of Comparative Minimum Inhibitory Concentrations (MIC) (the minimum concentration of the compound in micrograms per milliliter required to inhibit the growth of the test organism in a culture) obtained using Pseudomonas aeruginosa AJ 2116 as the test organism, are presented in Table 5.

[2] = Concentration in blood after oral administration to mice (oral absorption); format: in vivo; settings: Mouse (ICR 5W male), oral 50 mg/kg; for concentration at 0.5 h: 30 minutes; for concentration at 1 h: 60 minutes; for concentration at 1.5 h: 90 minutes
Source text: The imidazolecarboxylic acid derivatives of the present invention have a good oral absorption, as is evident from Table 6.
Concentration in Blood (μg/ml)

| SMILES | MIC [1] | concentration at 0.5 h [2] | concentration at 1 h [2] | concentration at 1.5 h [2] |
| --- | --- | --- | --- | --- |
| CC1(C)S[C@@H]2[C@H](NC(=O)[C@H](N)c3ccccc3)C(=O)N2[C@H]1C(=O)O [Ampicillin, reference compound] | > 500 mg/L | 81 µg/mL | 306 µg/mL | 41 µg/mL |
| CC1(C)S[C@@H]2[C@H](NC(=O)C(C(=O)O)c3ccccc3)C(=O)N2[C@H]1C(=O)O (stereo partly drawn) [Carbenicillin, reference compound] | 100 mg/L (≈ 264 µM) |  |  |  |
| CC1(C)S[C@@H]2[C@H](NC(=O)[C@H](NC(=O)c3[nH]cnc3[N+](=O)[O-])c3ccccc3)C(=O)N2[C@H]1C(=O)O [Example 1, D-α-(4-nitroimidazole-5-carboxyamide) benzyl penicillin] | 12.5 mg/L (≈ 25.6 µM) |  |  |  |
| CC1(C)S[C@@H]2[C@H](NC(=O)[C@H](NC(=O)c3[nH]cnc3Cl)c3ccccc3)C(=O)N2[C@H]1C(=O)O [Example 3] | 25 mg/L (≈ 52.3 µM) |  |  |  |
| Cc1nc(S)[nH]c1C(=O)N[C@@H](C(=O)N[C@@H]1C(=O)N2[C@@H]1SC(C)(C)[C@@H]2C(=O)O)c1ccccc1 [Example 8] | 25 mg/L (≈ 51.1 µM) |  |  |  |
| CCOC(=O)c1nc[nH]c1C(=O)N[C@@H](C(=O)N[C@@H]1C(=O)N2[C@@H]1SC(C)(C)[C@@H]2C(=O)O)c1ccccc1 [Example 13, D-α-(4-ethoxycarbonylimidazole-5-carboxyamide) benzylpenicillin] | 25 mg/L (≈ 48.5 µM) | 340 µg/mL | 97 µg/mL | 40 µg/mL |
